Measured values: patent publication US8030354B2, “Substituted biphenyl GPR40 modulators” (Amgen Inc., priority 2007, dated 2011)
pEC50: −log10 of the molar value.

Tests used:
GPR40 [1] = biological target: T1, GPR40 (Homo sapiens, UniProt O14842); experiment: Inositol phosphate accumulation assay (A9_GPR40 cells); assay type: cell-based; parameters: expressed in transfected cells; host or cells: CHO cells stably transfected with GPR40 and aequorin; conditions: inositol phosphate assay, A9_GPR40 cells, 1 hour; read-out: IP3 EC50
T1 sequence (O14842 whole entry): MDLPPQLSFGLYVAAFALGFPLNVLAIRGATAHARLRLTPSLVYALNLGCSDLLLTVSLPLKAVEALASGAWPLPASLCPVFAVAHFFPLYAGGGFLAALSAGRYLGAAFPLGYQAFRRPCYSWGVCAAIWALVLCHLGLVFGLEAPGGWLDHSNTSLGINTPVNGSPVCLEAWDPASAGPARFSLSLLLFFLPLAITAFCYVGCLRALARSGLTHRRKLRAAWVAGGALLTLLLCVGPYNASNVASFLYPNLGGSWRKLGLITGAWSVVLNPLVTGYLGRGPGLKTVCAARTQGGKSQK
Summary of the method: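 [^3H] inositol phosphate accumulation was measured by SPA after 1 h compound exposure at 37° C in HBSS/10 mM LiCl containing HSA, ending with a 20 mM formic acid quench. The GPR40-transfected A9 cells had first been labelled overnight (16 h) with 1 μCi/mL ^3H-inositol.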

GPR40 [2] = biological target: T1, GPR40; experiment: Cell-based aequorin assay (CHO cells stably expressing GPR40 and aequorin); parameters: expressed in transfected cells; host or cells: CHO cells stably transfected with GPR40 and aequorin; conditions: activation of human GPR40, CHO cells, 0.01% HSA
Summary of the method: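 CHO cells stably co-expressing GPR40 and aequorin, loaded with coelenterazine (1 ug/mL, 2 h, room temperature) in H/HBSS with 20 mM Hepes and 0.01% fatty acid-free HSA. Serially diluted compounds added; luminescence recorded over 20 s. EC50 from dose-response of maximum relative light units.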

`COc1ccc(F)c(-c2ccc(COc3cccc(C(CC(=O)O)CC4CC4)c3)cc2N2CCCCCC2)c1` (single isomer, unassigned) [Example 69.29, (3R)-3-(3-(((2-(1-Azepanyl)-2′-fluoro-5′-(methyloxy)-1,1′-biphenyl-4-yl)methyl)oxy)phenyl)-4-cyclopropylbutanoic acid or (3S)-3-(3-(((2-(1-azepanyl)-2′-fluoro-5′-(methyloxy)-1,1′-biphenyl-4-yl)methyl)oxy)phenyl)-4-cyclopropylbutanoic acid] was tested, and the pEC50 (GPR40 [1]) was 6.00 to 7.00 and the pEC50 (GPR40 [2]) was 6.00 to 7.00.

`COc1ccc(F)c(-c2cc(F)c(COc3cccc(C(CC(=O)O)CC4CC4)c3)cc2C2=CCCC2(C)C)c1` (single isomer, unassigned) [Example 69.30, (3R)-4-cyclopropyl-3-(3-(((2-(5,5-dimethyl-1-cyclopenten-1-yl)-2′,5-difluoro-5′-(methyloxy)-1,1′-biphenyl-4-yl)methyl)oxy)phenyl)butanoic acid or (3S)-4-cyclopropyl-3-(3-(((2-(5,5-dimethyl-1-cyclopenten-1-yl)-2′,5-difluoro-5′-(methyloxy)-1,1′-biphenyl-4-yl)methyl)oxy)phenyl)butanoic acid] was tested, and the pEC50 (GPR40 [1]) was > 8.00 and the pEC50 (GPR40 [2]) was 6.00 to 7.00.

`COc1ccc(F)c(-c2ccc(COc3cccc([C@@H](CC(=O)O)CC4CC4)c3)cc2C2=CC(C)(C)CC(C)(C)C2)c1` (single isomer, unassigned) [Example 69.31, (3R)-4-Cyclopropyl-3-(3-(((2′-fluoro-5′-(methyloxy)-2-(3,3,5,5-tetramethyl-1-cyclohexen-1-yl)-1,1′-biphenyl-4-yl)methyl)oxy)phenyl)butanoic acid or (3S)-4-cyclopropyl-3-(3-(((2′-fluoro-5′-(methyloxy)-2-(3,3,5,5-tetramethyl-1-cyclohexen-1-yl)-1,1′-biphenyl-4-yl)methyl)oxy)phenyl)butanoic acid] gave a pEC50 (GPR40 [1]) of 7.00 to 8.00 and a pEC50 (GPR40 [2]) of 6.00 to 7.00.

`COc1ccc(F)c(-c2ccc(COc3cccc([C@@H](CC(=O)O)CC4CC4)c3)cc2C2CC(C)(C)CC(C)(C)C2)c1` (single isomer, unassigned) [Example 69.32, (3R)-4-Cyclopropyl-3-(3-(((2′-fluoro-5′-(methyloxy)-2-(3,3,5,5-tetramethylcyclohexyl)-1,1′-biphenyl-4-yl)methyl)oxy)phenyl)butanoic acid or (3S)-4-cyclopropyl-3-(3-(((2′-fluoro-5′-(methyloxy)-2-(3,3,5,5-tetramethylcyclohexyl)-1,1′-biphenyl-4-yl)methyl)oxy)phenyl)butanoic acid] was tested, and the pEC50 (GPR40 [1]) was 7.00 to 8.00 and the pEC50 (GPR40 [2]) was 6.00 to 7.00.

`COc1ccc(F)c(-c2ccc(COc3cccc([C@@H](CC(=O)O)CC4CC4)c3)cc2C2CCCC2C)c1` (single isomer, unassigned) [Example 69.33, (3R)-4-Cyclopropyl-3-(3-(((2′-fluoro-2-(2-methylcyclopentyl)-5′-(methyloxy)-1,1′-biphenyl-4-yl)methyl)oxy)phenyl)butanoic acid or (3S)-4-cyclopropyl-3-(3-(((2′-fluoro-2-(2-methylcyclopentyl)-5′-(methyloxy)-1,1′-biphenyl-4-yl)methyl)oxy)phenyl)butanoic acid] gave a pEC50 (GPR40 [1]) of 7.00 to 8.00 and a pEC50 (GPR40 [2]) of 6.00 to 7.00.

For `COc1ccc(F)c(-c2cc(F)c(COc3cccc(C(CC(=O)O)CC4CC4)c3)cc2C2CCCC2(C)C)c1` (single isomer, unassigned) [Example 69.34], the pEC50 (GPR40 [1]) was > 8.00 and the pEC50 (GPR40 [2]) was 6.00 to 7.00.

For `COc1ccc(F)c(-c2ccc(COc3cccc(C(CC(=O)O)CC4CC4)c3)cc2C(OC)C(C)(C)C)c1` (single isomer, unassigned) [Example 69.35], the pEC50 (GPR40 [1]) was > 8.00 and the pEC50 (GPR40 [2]) was 7.00 to 8.00.

For `COc1ccc(F)c(-c2ccc(COc3cccc(C(CC(=O)O)CC4CC4)c3)cc2C2CCCCC2(C)C)c1` (single isomer, unassigned) [Example 69.36], the pEC50 (GPR40 [1]) was > 8.00 and the pEC50 (GPR40 [2]) was 6.00 to 7.00.

With `C=CC(C)(C)C(OC)c1cc(COc2cccc(C(CC(=O)O)CC3CC3)c2)ccc1-c1cc(OC)ccc1F` (single isomer, unassigned) [Example 69.38] the pEC50 (GPR40 [1]) was > 8.00 and the pEC50 (GPR40 [2]) was 6.00 to 7.00.

`CCC(C)(C)C(OC)c1cc(COc2cccc(C(CC(=O)O)CC3CC3)c2)ccc1-c1cc(OC)ccc1F` (single isomer, unassigned) [Example 69.42] was tested, and the pEC50 (GPR40 [1]) was > 8.00 and the pEC50 (GPR40 [2]) was 6.00 to 7.00.

`COc1ccc(F)c(-c2ccc(COc3cccc([C@@H](CC(=O)O)CC4CC4)c3)cc2[C@H]2OCCC2(C)C)c1` (single isomer, unassigned) [Example 69.44] gave a pEC50 (GPR40 [1]) of 7.00 to 8.00 and a pEC50 (GPR40 [2]) of 6.00 to 7.00.

For `COc1cccc(-c2ccc(COc3cccc(C(CC(=O)O)C4CCC4)c3)cc2C(C)(C)C)c1` (single isomer, unassigned) [Example 70.1, (3S)-3-Cyclobutyl-3-(3-(((2-(1,1-dimethylethyl)-3′-(methyloxy)-1,1′-biphenyl-4-yl)methyl)oxy)phenyl)propanoic acid or (3R)-3-cyclobutyl-3-(3-(((2-(1,1-dimethylethyl)-3′-(methyloxy)-1,1′-biphenyl-4-yl)methyl)oxy)phenyl)propanoic acid], the pEC50 (GPR40 [1]) was 7.00 to 8.00 and the pEC50 (GPR40 [2]) was 6.00 to 7.00.

`COc1ccc(F)c(-c2ccc(COc3cccc(C(CC(=O)O)C4CCC4)c3)cc2C2=CCCC2(C)C)c1` (single isomer, unassigned) [Example 70.2, (3S)-3-Cyclobutyl-3-(3-(((2-(5,5-dimethyl-1-cyclopenten-1-yl)-2′-fluoro-5′-(methyloxy)-1,1′-biphenyl-4-yl)methyl)oxy)phenyl)propanoic acid or (3R)-3-cyclobutyl-3-(3-(((2-(5,5-dimethyl-1-cyclopenten-1-yl)-2′-fluoro-5′-(methyloxy)-1,1′-biphenyl-4-yl)methyl)oxy)phenyl)propanoic acid] was tested, and the pEC50 (GPR40 [1]) was 7.00 to 8.00 and the pEC50 (GPR40 [2]) was 6.00 to 7.00.

Compound `COc1ccc(F)c(-c2ccc(COc3cccc(C(CC(=O)O)C4CCC4)c3)cc2C(C)(C)C)c1` (single isomer, unassigned) [Example 70.3, (3S)-3-Cyclobutyl-3-(3-(((2-(1,1-dimethylethyl)-2′-fluoro-5′-(methyloxy)-1,1′-biphenyl-4-yl)methyl)oxy)phenyl)propanoic acid or (3R)-3-cyclobutyl-3-(3-(((2-(1,1-dimethylethyl)-2′-fluoro-5′-(methyloxy)-1,1′-biphenyl-4-yl)methyl)oxy)phenyl)propanoic acid] has a pEC50 (GPR40 [1]) of 7.00 to 8.00 and a pEC50 (GPR40 [2]) of 6.00 to 7.00.

Work on `CCCCOc1cc(COc2cccc(C(CC(=O)O)C3CCC3)c2)ccc1-c1cc(OC)ccc1F` (single isomer, unassigned) [Example 70.4, (3S)-3-(3-(((2-(Butyloxy)-2′-fluoro-5′-(methyloxy)-1,1′-biphenyl-4-yl)methyl)oxy)phenyl)-3-cyclobutylpropanoic acid or (3R)-3-(3-(((2-(butyloxy)-2′-fluoro-5′-(methyloxy)-1,1′-biphenyl-4-yl)methyl)oxy)phenyl)-3-cyclobutylpropanoic acid] yielded a pEC50 (GPR40 [1]) of 6.00 to 7.00 and a pEC50 (GPR40 [2]) of 6.00 to 7.00.

`CCCCOc1cc(COc2cccc(C(CCCC)CC(=O)O)c2)ccc1-c1cc(OC)ccc1F` (single isomer, unassigned) [Example 71.2, (3R)-3-(3-(((2-(Butyloxy)-2′-fluoro-5′-(methyloxy)-1,1′-biphenyl-4-yl)methyl)oxy)phenyl)heptanoic acid or (3S)-3-(3-(((2-(butyloxy)-2′-fluoro-5′-(methyloxy)-1,1′-biphenyl-4-yl)methyl)oxy)phenyl)heptanoic acid] gave a pEC50 (GPR40 [1]) of 6.00 to 7.00 and a pEC50 (GPR40 [2]) of 6.00 to 7.00.

With `CCCCC(CC(=O)O)c1cccc(OCc2ccc(-c3cc(OC)ccc3F)c(C3=CCCC3(C)C)c2)c1` (single isomer, unassigned) [Example 71.3, (3R)-3-(3-(((2-(5,5-Dimethyl-1-cyclopenten-1-yl)-2′-fluoro-5′-(methyloxy)-1,1′-biphenyl-4-yl)methyl)oxy)phenyl)heptanoic acid or (3S)-3-(3-(((2-(5,5-dimethyl-1-cyclopenten-1-yl)-2′-fluoro-5′-(methyloxy)-1,1′-biphenyl-4-yl)methyl)oxy)phenyl)heptanoic acid] the pEC50 (GPR40 [1]) was 7.00 to 8.00 and the pEC50 (GPR40 [2]) was 6.00 to 7.00.

`CCC(CC(=O)O)c1cc(OCc2ccc(-c3cc(OC)ccc3F)c(C3=CCCC3(C)C)c2)ccc1F` (single isomer, unassigned) [Example 76.1, (3R)-3-(5-(((2-(5,5-Dimethyl-1-cyclopenten-1-yl)-2′-fluoro-5′-(methyloxy)-1,1′-biphenyl-4-yl)methyl)oxy)-2-fluorophenyl)pentanoic acid or (3S)-3-(5-(((2-(5,5-dimethyl-1-cyclopenten-1-yl)-2′-fluoro-5′-(methyloxy)-1,1′-biphenyl-4-yl)methyl)oxy)-2-fluorophenyl)pentanoic acid] was tested, and the pEC50 (GPR40 [1]) was 7.00 to 8.00 and the pEC50 (GPR40 [2]) was 6.00 to 7.00.

With `CCC(CC(=O)O)c1cc(OCc2ccc(-c3cc(OC)ccc3F)c(C3CCCC3(C)C)c2)ccc1F` (single isomer, unassigned) [Example 76.3] the pEC50 (GPR40 [1]) was 7.00 to 8.00 and the pEC50 (GPR40 [2]) was 6.00 to 7.00.

`CCC(CC(=O)O)c1cccc(OCc2ccc(-c3cc(OC)ccc3F)c(C3=CCCC3(C)C)c2)c1F` (single isomer, unassigned) [Example 77.1, (3R)-3-(3-(((2-(5,5-Dimethyl-1-cyclopenten-1-yl)-2′-fluoro-5′-(methyloxy)-1,1′-biphenyl-4-yl)methyl)oxy)-2-fluorophenyl)pentanoic acid or (3S)-3-(3-(((2-(5,5-dimethyl-1-cyclopenten-1-yl)-2′-fluoro-5′-(methyloxy)-1,1′-biphenyl-4-yl)methyl)oxy)-2-fluorophenyl)pentanoic acid] was tested, and the pEC50 (GPR40 [1]) was 7.00 to 8.00 and the pEC50 (GPR40 [2]) was 6.00 to 7.00.
